According to ChEMBL document CHEMBL4011597, “Synthesis, screening and docking of fused pyrano[3,2-d]pyrimidine derivatives as xanthine oxidase inhibitor” (Eur J Med Chem, 2017):
pIC50: −log10 of the molar value.

Columns and labels:
[1] = biological target: T1, Xanthine dehydrogenase/oxidase (Bos taurus, UniProt P80457); assay: Inhibition of bovine xanthine oxidase assessed as reduction in uric acid formation at 10 uM using xanthine as substrate pretreated for 5 mins followed by substrate addition measured by UV-vis spectrophotometric method relative to control; conditions: cattle
T1 sequence (P80457 whole entry): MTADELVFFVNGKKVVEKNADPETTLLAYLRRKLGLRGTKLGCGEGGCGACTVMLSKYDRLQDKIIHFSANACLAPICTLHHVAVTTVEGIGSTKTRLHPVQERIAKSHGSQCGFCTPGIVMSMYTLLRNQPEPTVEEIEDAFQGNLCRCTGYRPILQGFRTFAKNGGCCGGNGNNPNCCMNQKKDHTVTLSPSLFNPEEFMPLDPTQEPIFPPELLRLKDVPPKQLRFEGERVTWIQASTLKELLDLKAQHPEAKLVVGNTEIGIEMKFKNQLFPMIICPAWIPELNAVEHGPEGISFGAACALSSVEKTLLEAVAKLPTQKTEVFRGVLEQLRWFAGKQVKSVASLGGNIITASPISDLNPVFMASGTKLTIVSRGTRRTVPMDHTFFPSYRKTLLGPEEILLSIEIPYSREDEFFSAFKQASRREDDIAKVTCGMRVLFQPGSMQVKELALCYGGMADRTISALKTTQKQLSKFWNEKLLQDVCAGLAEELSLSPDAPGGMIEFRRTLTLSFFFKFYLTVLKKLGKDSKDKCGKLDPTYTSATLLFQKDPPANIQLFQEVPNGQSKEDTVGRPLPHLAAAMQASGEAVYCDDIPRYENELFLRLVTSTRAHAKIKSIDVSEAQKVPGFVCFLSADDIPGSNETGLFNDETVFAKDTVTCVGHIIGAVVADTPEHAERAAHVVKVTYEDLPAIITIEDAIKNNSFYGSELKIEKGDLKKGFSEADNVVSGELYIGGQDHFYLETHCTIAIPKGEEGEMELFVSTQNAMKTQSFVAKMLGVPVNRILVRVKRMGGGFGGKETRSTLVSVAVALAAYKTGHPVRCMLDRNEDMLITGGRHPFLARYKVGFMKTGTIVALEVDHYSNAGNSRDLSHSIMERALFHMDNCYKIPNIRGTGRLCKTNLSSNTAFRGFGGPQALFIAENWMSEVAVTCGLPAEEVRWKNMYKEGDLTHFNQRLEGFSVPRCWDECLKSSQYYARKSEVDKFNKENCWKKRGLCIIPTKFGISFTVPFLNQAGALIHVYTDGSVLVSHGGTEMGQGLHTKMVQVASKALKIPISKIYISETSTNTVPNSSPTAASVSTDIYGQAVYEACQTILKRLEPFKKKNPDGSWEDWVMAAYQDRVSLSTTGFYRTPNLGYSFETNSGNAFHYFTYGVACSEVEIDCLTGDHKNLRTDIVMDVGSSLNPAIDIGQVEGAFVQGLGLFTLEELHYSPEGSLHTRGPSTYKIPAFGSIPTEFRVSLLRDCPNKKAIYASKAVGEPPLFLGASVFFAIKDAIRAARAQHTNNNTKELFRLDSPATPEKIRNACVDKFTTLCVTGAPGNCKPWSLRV

[2] = biological target: T1, Xanthine dehydrogenase/oxidase; assay: Inhibition of bovine xanthine oxidase assessed as reduction in uric acid formation using xanthine as substrate pretreated for 5 mins followed by substrate addition measured by UV-vis spectrophotometric method
[3] = biological target: T1, Xanthine dehydrogenase/oxidase; assay: Inhibition of bovine xanthine oxidase assessed as reduction in uric acid formation at 1 uM using xanthine as substrate pretreated for 5 mins followed by substrate addition measured by UV-vis spectrophotometric method relative to control; conditions: cattle
[4] = biological target: T1, Xanthine dehydrogenase/oxidase; assay: Inhibition of bovine xanthine oxidase assessed as reduction in uric acid formation at 100 uM using xanthine as substrate pretreated for 5 mins followed by substrate addition measured by UV-vis spectrophotometric method relative to control; conditions: cattle

Row | SMILES | inhibition at 10 µM [1] [%] | pIC50 [2] | inhibition at 1 µM [3] [%] | inhibition at 100 µM [4] [%]
1 | COc1ccc(Nc2ncnc3c2C(c2ccc(Cl)cc2)C2=C(CCCC2=O)O3)cc1 (configuration not stated) | 34.5 | 4.26 | 22 | 69.4
2 | COc1ccc(Nc2ncnc3c2C(c2cc(OC)c(OC)c(OC)c2)c2c(c(=O)oc4ccccc24)O3)cc1 (configuration not stated) | 37.2 | 4.38 | 26.2 | 74.5
3 | COc1ccc(Nc2ncnc3c2C(c2cccc(C)c2)c2c(c(=O)oc4ccccc24)O3)cc1 (configuration not stated) | 39.1 | 4.43 | 28.7 | 78.2
4 | COc1ccc(Nc2ncnc3c2C(c2ccccc2OC)C2=C(CCCC2=O)O3)cc1 (configuration not stated) | 43.2 | 4.62 | 34.8 | 86.5
5 | COc1ccc(Nc2ncnc3c2C(c2ccc(O)c(OC)c2)C2=C(CCCC2=O)O3)cc1 (configuration not stated) | 60 | 5.15 | 30.3 | 95
6 | COc1ccc(Nc2ncnc3c2C(c2ccc(O)c(O)c2)C2=C(CCCC2=O)O3)cc1 (configuration not stated) | 56.5 | 5.07 | 27.3 | 93.8
7 | COc1ccc(Nc2ncnc3c2C(c2ccc(O)cc2)c2c(c(=O)oc4ccccc24)O3)cc1 (configuration not stated) | 41.2 | 4.52 | 30.9 | 82.4
8 | COc1ccc(Nc2ncnc3c2C(c2ccccc2OC)c2c(c(=O)oc4ccccc24)O3)cc1 (configuration not stated) | 41.1 | 4.54 | 30.2 | 83.6
9 | COc1ccc(Nc2ncnc3c2C(c2ccc(O)c(O)c2)c2c(n[nH]c2C)O3)cc1 (configuration not stated) | 31.6 | 4.17 | 23.5 | 60.6
10 | COc1ccc(Nc2ncnc3c2C(c2cccc([N+](=O)[O-])c2)c2c(c(=O)oc4ccccc24)O3)cc1 (configuration not stated) | 31.5 | 4.19 | 20.2 | 63.6
11 | COc1ccc(Nc2ncnc3c2C(c2ccc(O)cc2)C2=C(CCCC2=O)O3)cc1 (configuration not stated) | 42.4 | 4.55 | 30.5 | 84.8
12 | COc1ccc(Nc2ncnc3c2C(c2cccc([N+](=O)[O-])c2)C2=C(CCCC2=O)O3)cc1 (configuration not stated) | 32.7 | 4.22 | 21.9 | 64.2
13 | COc1ccc(Nc2ncnc3c2C(c2ccccc2)C2=C(CCCC2=O)O3)cc1 (configuration not stated) | 37.5 | 4.40 | 29.1 | 75.4
14 | COc1ccc(Nc2ncnc3c2C(c2ccc(OC)c(OC)c2)c2c(c(=O)oc4ccccc24)O3)cc1 (configuration not stated) | 48 | 4.77 | 36.7 | 94
15 | COc1ccc(Nc2ncnc3c2C(c2ccc(O)c(OC)c2)c2c(c(=O)oc4ccccc24)O3)cc1 (configuration not stated) | 47.2 | 4.82 | 33.2 | 92.3
16 | COc1ccc(Nc2ncnc3c2C(c2ccc(F)cc2)c2c(c(=O)oc4ccccc24)O3)cc1 (configuration not stated) | 35.1 | 4.30 | 24.5 | 70.2
17 | COc1ccc(Nc2ncnc3c2C(c2cccc(Cl)c2)C2=C(CCCC2=O)O3)cc1 (configuration not stated) | 34.6 | 4.28 | 29.2 | 70.2
18 | COc1ccc(Nc2ncnc3c2C(c2ccc(OC)c(OC)c2)C2=C(CCCC2=O)O3)cc1 (configuration not stated) | 57.5 | 5.10 | 29.3 | 94.2

Row | SMILES | inhibition at 10 µM [1] [%] | pIC50 [2] | inhibition at 1 µM [3] [%] | inhibition at 100 µM [4] [%]
19 | COc1ccc(Nc2ncnc3c2C(c2ccc([N+](=O)[O-])cc2)c2c(c(=O)oc4ccccc24)O3)cc1 (configuration not stated) | 30.5 | 4.19 | 22.2 | 61.9
20 | COc1ccc(Nc2ncnc3c2C(c2cccc(O)c2)C2=C(CCCC2=O)O3)cc1 (configuration not stated) | 41.2 | 4.52 | 29.4 | 82.3
21 | COc1ccc(Nc2ncnc3c2C(c2ccc(Br)cc2)C2=C(CCCC2=O)O3)cc1 (configuration not stated) | 33.5 | 4.24 | 23.1 | 67
22 | COc1ccc(Nc2ncnc3c2C(c2cccc(O)c2)c2c(c(=O)oc4ccccc24)O3)cc1 (configuration not stated) | 39.5 | 4.46 | 28.5 | 81.3
23 | COc1ccc(Nc2ncnc3c2C(c2ccc(OC)c(OC)c2)c2c(n[nH]c2C)O3)cc1 (configuration not stated) | 31.4 | 4.19 | 23.6 | 63.7
24 | COc1ccc(Nc2ncnc3c2C(c2ccc(O)c(OC)c2)c2c(n[nH]c2C)O3)cc1 (configuration not stated) | 32.5 | 4.22 | – | 65.5
25 | COc1ccc(Nc2ncnc3c2C(c2cccc(C)c2)C2=C(CCCC2=O)O3)cc1 (configuration not stated) | 40.2 | 4.46 | 31 | 80.5
26 | COc1ccc(Nc2ncnc3c2C(c2ccc(Br)cc2)c2c(c(=O)oc4ccccc24)O3)cc1 (configuration not stated) | 32.4 | 4.22 | 22.2 | 65.8
27 | COc1ccc(Nc2ncnc3c2C(c2cc(OC)c(OC)c(OC)c2)C2=C(CCCC2=O)O3)cc1 (configuration not stated) | 38 | 4.40 | 27.4 | 76.8
28 | COc1ccc(Nc2ncnc3c2C(c2ccc([N+](=O)[O-])cc2)C2=C(CCCC2=O)O3)cc1 (configuration not stated) | 31.5 | 4.17 | 20 | 63.5
29 | COc1ccc(Nc2ncnc3c2C(c2ccc(OC)cc2)c2c(n[nH]c2C)O3)cc1 (configuration not stated) | 29.3 | – | 20.1 | 58.4
30 | COc1ccc(Nc2ncnc3c2C(c2ccc(OC)cc2)C2=C(CCCC2=O)O3)cc1 (configuration not stated) | 43.5 | 4.60 | 32.3 | 87.4
31 | COc1ccc(Nc2ncnc3c2C(c2ccc(OC)cc2)c2c(c(=O)oc4ccccc24)O3)cc1 (configuration not stated) | 43.7 | 4.62 | 32.4 | 85.3
32 | COc1ccc(Nc2ncnc3c2C(c2ccc(Cl)cc2)c2c(c(=O)oc4ccccc24)O3)cc1 (configuration not stated) | 33.5 | 4.25 | 21.3 | 67.2
33 | COc1ccc(Nc2ncnc3c2C(c2ccccc2)c2c(c(=O)oc4ccccc24)O3)cc1 (configuration not stated) | 36.4 | 4.40 | 25.1 | 72.8
34 | COc1ccc(Nc2ncnc3c2C(c2cccc(Cl)c2)c2c(c(=O)oc4ccccc24)O3)cc1 (configuration not stated) | 34.5 | 4.27 | 23.2 | 69.6
35 | COc1ccc(Nc2ncnc3c2C(c2ccc(F)cc2)C2=C(CCCC2=O)O3)cc1 (configuration not stated) | 35.5 | 4.30 | 27.1 | 71.1
36 | COc1ccc(Nc2ncnc3c2C(c2ccc(O)c(O)c2)c2c(c(=O)oc4ccccc24)O3)cc1 (configuration not stated) | 45.9 | 4.74 | 35 | 90.4
